# Marks after values point to notes of the source that are not given here. Where no end group is shown, it is not given here.
# Assays:
# [1] = test system: Colorectal cancer tumor cells; experiment: MTT proliferation inhibition, colorectal cancer cells; type: cell-based, human; set-up: concentration or dose not given beside the values; details: 48 h
# Procedure, shortened: (§1)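 Tumour cells plated at 2×10^4 cells/mL, attached overnight, then exposed to dilutions of mPEG-HM-1 for 48 h at 37 °C, 5% CO2. MTT added 4 h, formazan dissolved in DMSO, absorbance 570/630 nm; growth inhibition = 1 − treated/untreated, three independent repeats, mean±SD.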
# [2] = test system: carrageenan-induced toe swelling in SD rats; experiment: Carrageenan-induced acute toe swelling in rats; type: in vivo, rat; set-up: Swelling: unit not given here
# Protocol: SD rats were divided into blank model group, dexamethasone-positive group (5 mg/kg) and mPEG-HM-1 test group. The drug was administered once a day, and the model group was given the same volume of normal saline for 3 days and fed normally. At the first hour after the last administration, 0.1 mL of 1% carrageenan was injected subcutaneously into the right hind paw of the rats to induce inflammation. The volume of the foot was measured at 1 h, 3 h, 5 h, and 7 h after inflammation. The degree of swelling of the foot was calculated according to the following formula: the degree of swelling of the foot (mL)=the volume of the foot after inflammation−the volume before inflammation. Record the number of milliliters of spilled liquid (method: use the ballpoint pen to circle as the measurement mark at the protruding point of the right joint, and then put the right hind foot of each mouse into the volume measuring device, so that the hind limb is exposed outside the cylinder, and the depth of the immersion was determined by coinciding the circle with the liquid surface. After the foot enters the liquid, the liquid level rises, and the volume of the overflow liquid is the volume of the right hind foot of the rat, and the normal volume of the right hind foot of each mouse is sequentially determined).
# [3] = test system: adjuvant arthritis (AA) SD rats; experiment: Adjuvant arthritis (AA) rat model; type: in vivo; details: for Joint swelling / Left and right paw swelling / Clinical score: AA SD rats; for Clinical score: maximum score 16
# [4] = test system: Thyroid cancer tumor cells; experiment: MTT proliferation inhibition, thyroid cancer cells; type: cell-based, human; set-up: concentration or dose not given beside the values; details: 48 h
# Procedure, shortened: as §1
# [5] = test system: Human Umbilical Vein Endothelial Cells (HUVEC); experiment: Transwell migration of HUVEC; type: cell-based; details: 24 h
# Procedure, shortened: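 HUVEC (1×10^5/mL in blank medium) seeded with test solutions into Matrigel-coated transwell inserts, lower chamber holding medium with 5% FBS and 1% ECGS, 24 h at 37 °C. Migrated cells crystal-violet stained and counted in four fields; migration inhibition calculated from test versus blank-control counts, three independent repeats.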
# [6] = test system: retinal neovascular clusters in OIR C57/B16 mice; experiment: Retinal blood vessels in OIR mice; type: in vivo, mouse; details: for Neovascular clusters area: retina evaluated on day 17; for Inhibition rate: neovascular clusters area vs control, day 17
# Source text: Establishment of the OIR model: Exposure of young mouse and their mothers to 75% hyperoxic environment from day 7 to day 12 after birth of C57/B16 mice caused rapid disappearance of capillaries in the central retina. Upon returning to the indoor air on the 12th day, the retinal blood vessels, upon exposing to hyperoxia, rapidly disappeared, causing extensive abnormal neovascularization, and the central portion of the retina remained largely avascular for a long time. After the blood vessels disappeared completely, on the 13th day, physiological saline (negative control group), mPEG-SC-HM-1, mPEG2-NHS-HM-1, mPEG-ALD10k-HM-1, and mPEG-bALD-HM-1, were administered by intravitreal injection and retinal vessels were evaluated on day 17 (to label unclosed vessels, […] of Texas Red-labeled tomato lectin was injected into the left ventricle and circulated for 5 min).
# [7] = test system: Bladder Cancer tumor cells; experiment: MTT proliferation inhibition, bladder cancer cells; type: cell-based, human; set-up: concentration or dose not given beside the values; details: 48 h
# Procedure, shortened: as §1
# [8] = test system: Melanoma tumor cells; experiment: MTT proliferation inhibition, melanoma cells; type: cell-based, human; set-up: concentration or dose not given beside the values; details: 48 h
# Procedure, shortened: as §1
# [9] = test system: Pancreatic cancer tumor cells; experiment: MTT proliferation inhibition, pancreatic cancer cells; type: cell-based, human; set-up: concentration or dose not given beside the values; details: 48 h
# Procedure, shortened: as §1
# [10] = test system: Gastric cancer tumor cells; experiment: MTT proliferation inhibition, gastric cancer cells; type: cell-based, human; set-up: concentration or dose not given beside the values; details: 48 h
# Procedure, shortened: as §1
# [11] = 40 mg/kg once a day for 3 days, 1 h after carrageenan
# [12] = 40 mg/kg once a day for 3 days, 3 h after carrageenan
# [13] = 40 mg/kg once a day for 3 days, 5 h after carrageenan
# [14] = 40 mg/kg once a day for 3 days, 7 h after carrageenan
# [15] = 20 mg/kg subcutaneous once every three days
# [16] = 40 mg/kg subcutaneous once every three days
substance,measurement,setting,value
mPEG-ALD10k-Arg-Gly-Ala-Asp-Arg-Ala-Gly-Gly-Gly-Gly-Arg-Gly-Asp ({mPEG‑ALD 10 kDa}-RGADRAGGGGRGD) [mPEG-ALD10k-HM-1],rate of growth inhibition,[1],80.22 ± 20.03%
same,Swelling,"[2]; 20 mg/kg once a day for 3 days, 1 h after carrageenan",0.24 ± 0.12
same,Swelling,"[2]; 20 mg/kg once a day for 3 days, 3 h after carrageenan",0.36 ± 0.13
same,Swelling,"[2]; 20 mg/kg once a day for 3 days, 5 h after carrageenan",0.42 ± 0.15
same,Swelling,"[2]; 20 mg/kg once a day for 3 days, 7 h after carrageenan",0.32 ± 0.10
same,Swelling,[2]; [11],0.21 ± 0.10
same,Swelling,[2]; [12],0.31 ± 0.20
same,Swelling,[2]; [13],0.36 ± 0.13
same,Swelling,[2]; [14],0.33 ± 0.12
same,inhibition of carrageenan-induced toe swelling (in words),"[2]; rats, 40 mg/kg, once a day for 3 days",most effective
same,Joint swelling,[3]; [15],0.68 ± 0.15 mm
same,Left and right paw swelling,[3]; [15],3.72 ± 0.54 mm
same,Clinical score,[3]; [15],5.39 ± 1.10
same,in vivo immune protection effect on adjuvant arthritis model (in words),"[3]; AA rats, subcutaneous, once every three days, vs model group",has the most significant effect
same,rate of growth inhibition,[4],55.30 ± 13.10%
same,cell migration number (Mean ± SD),[5]; 50 μg/mL,604.31 ± 52.14
same,inhibition rate of HUVEC migration,[5]; 50 μg/mL,41.27%*
same,cell migration number (Mean ± SD),[5]; 60 μg/mL,514.38 ± 42.38
same,inhibition rate of HUVEC migration,[5]; 60 μg/mL,50.01%
same,cell migration number (Mean ± SD),[5]; 70 μg/mL,417.96 ± 50.48
same,inhibition rate of HUVEC migration,[5]; 70 μg/mL,59.38%
same,cell migration number (Mean ± SD),[5]; 80 μg/mL,548.54 ± 56.22
same,inhibition rate of HUVEC migration,[5]; 80 μg/mL,46.69%*
same,Neovascular clusters area,[6]; 50 μg intravitreal injection on day 13,0.085 ± 0.007 mm^2
same,Inhibition rate,[6]; 50 μg intravitreal,61.75%**
same,inhibition rate of retinal neovascular clusters,"[6]; OIR mice, 50 μg intravitreal injection, evaluated day 17",61.75%
same,rate of growth inhibition,[7],52.68 ± 13.12%
same,rate of growth inhibition,[8],88.39 ± 22.38%
same,rate of growth inhibition,[9],79.21 ± 19.14%
same,rate of growth inhibition,[10],80.01 ± 18.26%
mPEG-ALD20k-Arg-Gly-Ala-Asp-Arg-Ala-Gly-Gly-Gly-Gly-Arg-Gly-Asp ({mPEG‑ALD 20 kDa}-RGADRAGGGGRGD) [mPEG-ALD20k-HM-1],rate of growth inhibition,[1],72.43 ± 19.32%
same,Swelling,[2]; [11],0.27 ± 0.13
same,Swelling,[2]; [12],0.34 ± 0.16
same,Swelling,[2]; [13],0.41 ± 0.14
same,Swelling,[2]; [14],0.35 ± 0.13
same,Swelling,"[2]; 80 mg/kg once a day for 3 days, 1 h after carrageenan",0.25 ± 0.09
same,Swelling,"[2]; 80 mg/kg once a day for 3 days, 3 h after carrageenan",0.32 ± 0.11
same,Swelling,"[2]; 80 mg/kg once a day for 3 days, 5 h after carrageenan",0.40 ± 0.15
same,Swelling,"[2]; 80 mg/kg once a day for 3 days, 7 h after carrageenan",0.32 ± 0.16
same,Joint swelling,[3]; [16],0.76 ± 0.21 mm
same,Left and right paw swelling,[3]; [16],3.77 ± 0.62 mm
same,Clinical score,[3]; [16],5.67 ± 1.08
same,rate of growth inhibition,[4],50.35 ± 15.23%
same,cell migration number (Mean ± SD),[5]; 70 μg/mL,611.92 ± 52.08
same,inhibition rate of HUVEC migration,[5]; 70 μg/mL,40.53%*
same,cell migration number (Mean ± SD),[5]; 80 μg/mL,507.07 ± 40.74
same,inhibition rate of HUVEC migration,[5]; 80 μg/mL,50.72%
same,cell migration number (Mean ± SD),[5]; 90 μg/mL,403.15 ± 48.80
same,inhibition rate of HUVEC migration,[5]; 90 μg/mL,60.82%
same,cell migration number (Mean ± SD),[5]; 100 μg/mL,564.59 ± 50.42
same,inhibition rate of HUVEC migration,[5]; 100 μg/mL,45.13%*
same,Neovascular clusters area,[6]; 100 μg intravitreal injection on day 13,0.095 ± 0.009 mm^2
same,Inhibition rate,[6]; 100 μg intravitreal,57.03%**
same,rate of growth inhibition,[7],45.29 ± 11.63%
same,rate of growth inhibition,[8],80.71 ± 23.46%
same,rate of growth inhibition,[9],70.65 ± 20.29%
same,rate of growth inhibition,[10],75.23 ± 20.62%
